Assays:
AVEFA (Avena fatua) = assay: Activity against grass weeds, post-emergence spray in pots in controlled-environment cabinet, visual scoring; type: in vivo; conditions: mesosulfuron-methyl 60 g a.i./ha (Silwet L77 50 g a.i./ha, sodium lactate 150 g a.i./ha where present); sprayed four weeks after sowing, water 300 l/ha; visual scoring 14 days after application, 0% = no damage to 100% = all plants dead
Protocol: (§1) The individual components herbicide, surfactant and humectant as stated in Table 1 with regard to the application rates were added with stirring to a water application rate of 300 I/ha so that a homogeneous spray mixture was formed. The herbicide employed was mesosulfuron-methyl as 20 percent water-dispersible powder. The surfactant used was Silwet®L77 (Wacker) and the humectant used was sodium lactate as 50 percent aqueous solution (Merck KGaA, Darmstadt). Seeds of the harmful plants AVEFA and LOLMU were sown in a sandy loam soil in round pots type 13 in a controlled-environment cabinet and watered slightly. During the entire experiment period, the substrate only received minimal irrigation. A daytime temperature of 18° C. and a night time temperature of 16° C. were adhered to, a uniform day length of 16 hours being achieved by additional illumination with sodium vapor lamps (approx. 7000 lux). The relative atmospheric humidity was 50%. Four weeks after sowing, the plants were treated on a laboratory spray conveyor with the spray mixture which had been prepared in accordance with Example 1. The water application rate for the spray application of the preparations was 300 I/ha. After the treatment, the plants were returned to the controlled-environment cabinet. […]

[1] = test system: LOLMU (Lolium multiflorum); assay: as above; type: in vivo; conditions: mesosulfuron-methyl 60 g a.i./ha (Silwet L77 50 g a.i./ha, sodium lactate 150 g a.i./ha where present); sprayed four weeks after sowing, water 300 l/ha; visual scoring 14 days after application, 0% = no damage to 100% = all plants dead
Protocol: as §1

COC(=O)c1ccc(CNS(C)(=O)=O)cc1S(=O)(=O)NC(=O)Nc1nc(OC)cc(OC)n1 [Mesosulfuron, mesosulfuron-methyl]
Damage in % AVEFA (AVEFA (Avena fatua)): 22%
Damage in % LOLMU [1]: 18%
